Measurements taken from patent US20230055237A1, “COMPOUNDS AND METHODS FOR THE TREATMENT OF CYSTIC FIBROSIS” (Flatley Discovery Lab, LLC, priority 2019, published 2023).

Target: T1, CFTR (Homo sapiens, UniProt P13569, DEL508-508)
T1 construct: Primary CF airway epithelial cells were obtained from the UNC Cystic Fibrosis Tissue Procurement and Cell Culture Core; host or cells: primary CF airway epithelial cells, differentiated at the air-liquid interface
Assay: Equivalent current assay in primary CF airway epithelial cells (NAUC, combination with 1st site corrector FDL169 or VX-809)
Format: cell-based
Settings: 37° C., 24 h

[1] = test compound 1 μM in combination with 1st site corrector FDL169 (3 μM)
[2] = test compound 3 μM in combination with 1st site corrector FDL169 (3 μM)
[3] = test compound 1 μM in combination with 1st site corrector VX-809 (3 μM)
[4] = test compound 3 μM in combination with 1st site corrector VX-809 (3 μM)
[5] = test compound 10 μM in combination with 1st site corrector VX-809 (3 μM)
[6] = test compound 10 μM in combination with 1st site corrector FDL169 (3 μM)

T1 sequence (P13569 with tags, fused parts or gaps DEL508-508): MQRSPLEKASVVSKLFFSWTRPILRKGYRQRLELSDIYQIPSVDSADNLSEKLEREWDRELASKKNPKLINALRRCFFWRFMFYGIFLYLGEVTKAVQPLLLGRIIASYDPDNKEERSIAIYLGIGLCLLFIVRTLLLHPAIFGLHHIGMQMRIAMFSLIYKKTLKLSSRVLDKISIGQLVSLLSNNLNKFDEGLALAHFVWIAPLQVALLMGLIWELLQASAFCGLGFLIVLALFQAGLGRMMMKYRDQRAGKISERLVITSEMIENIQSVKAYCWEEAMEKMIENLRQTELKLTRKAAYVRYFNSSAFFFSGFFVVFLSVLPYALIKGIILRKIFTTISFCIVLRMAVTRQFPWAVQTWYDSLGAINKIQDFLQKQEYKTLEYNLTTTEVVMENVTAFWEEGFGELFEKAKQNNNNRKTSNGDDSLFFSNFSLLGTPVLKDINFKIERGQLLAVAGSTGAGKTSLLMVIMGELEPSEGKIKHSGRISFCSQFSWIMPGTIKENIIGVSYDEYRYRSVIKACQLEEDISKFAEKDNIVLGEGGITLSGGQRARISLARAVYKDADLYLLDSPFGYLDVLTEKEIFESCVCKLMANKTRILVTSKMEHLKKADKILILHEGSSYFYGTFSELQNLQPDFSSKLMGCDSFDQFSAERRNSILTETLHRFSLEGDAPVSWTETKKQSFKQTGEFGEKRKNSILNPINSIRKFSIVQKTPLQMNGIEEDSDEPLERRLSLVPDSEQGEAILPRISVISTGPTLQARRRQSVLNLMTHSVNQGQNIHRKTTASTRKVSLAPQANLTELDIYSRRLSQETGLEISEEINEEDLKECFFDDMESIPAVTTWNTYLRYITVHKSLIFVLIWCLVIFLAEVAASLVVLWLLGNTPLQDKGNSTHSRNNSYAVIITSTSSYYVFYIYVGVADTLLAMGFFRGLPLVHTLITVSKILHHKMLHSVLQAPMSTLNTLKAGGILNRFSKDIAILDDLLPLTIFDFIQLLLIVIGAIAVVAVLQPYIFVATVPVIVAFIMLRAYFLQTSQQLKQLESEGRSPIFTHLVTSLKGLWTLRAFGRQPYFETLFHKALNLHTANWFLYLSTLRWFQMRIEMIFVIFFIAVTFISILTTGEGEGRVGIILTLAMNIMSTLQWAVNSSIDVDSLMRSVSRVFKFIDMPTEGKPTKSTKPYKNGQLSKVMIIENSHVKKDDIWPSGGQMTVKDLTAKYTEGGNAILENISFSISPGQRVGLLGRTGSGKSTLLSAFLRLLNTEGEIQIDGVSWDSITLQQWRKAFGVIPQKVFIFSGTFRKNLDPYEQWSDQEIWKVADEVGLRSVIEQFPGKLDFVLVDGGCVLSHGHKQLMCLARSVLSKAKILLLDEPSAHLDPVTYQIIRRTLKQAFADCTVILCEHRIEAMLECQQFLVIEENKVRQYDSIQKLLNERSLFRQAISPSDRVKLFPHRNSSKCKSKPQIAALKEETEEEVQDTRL

SMILES	Nauc @ 1 μM [1]	Nauc @ 3 μM [2]	Nauc @ 1 μM [3]	Nauc @ 3 μM [4]	Nauc @ 10 μM [5]	Nauc @ 10 μM [6]
CN(C(=O)C1C2CC(F)(F)CN2C2(C(=O)Nc3c(Cl)cc(Cl)cc32)C1C(=O)O)c1cc(C(F)(F)F)cc(C(F)(F)F)n1 (single isomer, unassigned) [Example 273b, 1′-((4,6-bis(trifluoromethyl)pyridin-2-yl)(methyl)carbamoyl)-5,7-dichloro-6′,6′-difluoro-2-oxo-1′,2′,5′,6′,7′,7a′-hexahydrospiro[indoline-3,3′-pyrrolizine]-2′-carboxylic acid]	+ (NAUC “+” refers to an observed NAUC <140% of positive control)	++ (NAUC “++” refers to an observed NAUC 170-140% of positive control)				
CN(C)CCN(C(=O)[C@H]1[C@H]2CC(F)(F)CN2[C@]2(C(=O)Nc3c(Cl)cc(Cl)cc32)[C@H]1C(=O)O)c1cc(Cl)cc(Cl)c1 [Example 160]	+ (NAUC “+” refers to an observed NAUC <140% of positive control)	+ (NAUC “+” refers to an observed NAUC <140% of positive control)				
CN(O)C(=O)[C@H]1[C@@H](C(=O)N(C)c2cc(Cl)cc(Cl)c2)[C@H]2CC(F)(F)CN2[C@]12C(=O)Nc1c(Cl)cc(Cl)cc12 [Example 260a, (1′R,2′S,3R,7a′R)-5,7-dichloro-N1′-(3,5-dichlorophenyl)-6′,6′-difluoro-N2′-hydroxy-N1′,N2′-dimethyl-2-oxo-1′,2′,5′,6′,7′,7a′-hexahydrospiro[indoline-3,3′-pyrrolizine]-1′,2′-dicarboxamide]			+ (NAUC “+” refers to an observed NAUC <140% of positive control)	+ (NAUC “+” refers to an observed NAUC <140% of positive control)		
Cc1cccc(CCNC(=O)C2C3CC(F)(F)CN3C3(C(=O)Nc4c(Cl)cc(Cl)cc43)C2C(=O)O)c1 (stereo not shown) [Example 48]				++ (NAUC “++” refers to an observed NAUC 170-140% of positive control)	+++ (NAUC “+++” refers to an observed NAUC>170% of positive control)	
O=C(O)[C@H]1[C@@H](C(=O)N(CC2CC2)c2cc(Cl)cc(Cl)c2)[C@H]2CCCN2C12C(=O)Nc1c(Cl)cc(Cl)cc12 (single isomer, unassigned) [Example 83b]	+++ (NAUC “+++” refers to an observed NAUC>170% of positive control)	+++ (NAUC “+++” refers to an observed NAUC>170% of positive control)				
O=C(Nc1cc(Cl)cc(Cl)c1)C1C(C(F)(F)c2ccccn2)NC2(C(=O)Nc3c(Cl)cc(Cl)cc32)C1C(=O)O (stereo not shown) [Example 72.c]					++ (NAUC “++” refers to an observed NAUC 170-140% of positive control)	
O=C(Nc1ccccc1O)C1C2CC(F)(F)CN2C2(C(=O)Nc3c(Cl)cc(Cl)cc32)C1C(=O)O (stereo not shown) [Example 78.a]					+ (NAUC “+” refers to an observed NAUC <140% of positive control)	
CC(C)(C)c1cccc(CCNC(=O)C2C3N(CCC3(F)F)C3(C(=O)Nc4c(Cl)cc(Cl)cc43)C2C(=O)O)c1 (single isomer, unassigned) [Example 267, 1′-((3-(tert-butyl)phenethyl)carbamoyl)-5,7-dichloro-7′,7′-difluoro-2-oxo-1′,2′,5′,6′,7′,7a′-hexahydrospiro[indoline-3,3′-pyrrolizine]-2′-carboxylic acid]			+++ (NAUC “+++” refers to an observed NAUC>170% of positive control)	+++ (NAUC “+++” refers to an observed NAUC>170% of positive control)	+++ (NAUC “+++” refers to an observed NAUC>170% of positive control)	
O=C1C2C(C(F)(F)F)NC3(C(=O)Nc4c(Cl)cc(Cl)cc43)C2C(=O)N1c1cc(Cl)cc(Cl)c1 (single isomer, unassigned) [Example 81, 5,7-dichloro-4′4(3,5-dichlorophenyl)carbamoyl)-1-methyl-2-oxo-5′-(trifluoromethyl)spiro[indoline-3,2′-pyrrolidinel-3′-carboxylic acid]			+ (NAUC “+” refers to an observed NAUC <140% of positive control)	++ (NAUC “++” refers to an observed NAUC 170-140% of positive control)	+ (NAUC “+” refers to an observed NAUC <140% of positive control)	
CC(C)(C)c1cccc(CCNC(=O)C2C3CCCN3C3(C(=O)Nc4c(Cl)cc(Cl)cc43)C2C(=O)O)c1 (stereo not shown) [Example 53]				+++ (NAUC “+++” refers to an observed NAUC>170% of positive control)	+++ (NAUC “+++” refers to an observed NAUC>170% of positive control)	
CN(C(=O)C1C2CC(F)(F)CN2C2(C(=O)Nc3c(Cl)cc(Cl)cc32)C1C(=O)O)c1cc(C(F)(F)F)cc(C(F)(F)F)n1 (single isomer, unassigned) [Example 273a, 1′-((4,6-bis(trifluoromethyl)pyridin-2-yl)(methyl)carbamoyl)-5,7-dichloro-6′,6′-difluoro-2-oxo-1′,2′,5′,6′,7′,7a′-hexahydrospiro[indoline-3,3′-pyrrolizine]-2′-carboxylic acid]	+ (NAUC “+” refers to an observed NAUC <140% of positive control)	+ (NAUC “+” refers to an observed NAUC <140% of positive control)				
CN(C(=O)[C@H]1[C@H]2C[C@](C)(OCc3ccccc3)CN2[C@]2(C(=O)Nc3c(Cl)cc(Cl)cc32)[C@H]1C(=O)O)c1cc(Cl)cc(Cl)c1 [Example 92]	+ (NAUC “+” refers to an observed NAUC <140% of positive control)	++ (NAUC “++” refers to an observed NAUC 170-140% of positive control)	++ (NAUC “++” refers to an observed NAUC 170-140% of positive control)	+++ (NAUC “+++” refers to an observed NAUC>170% of positive control)	+++ (NAUC “+++” refers to an observed NAUC>170% of positive control)	+++ (NAUC “+++” refers to an observed NAUC>170% of positive control)
CC(C)CN(C(=O)[C@H]1[C@H]2CC(F)(F)CN2[C@]2(C(=O)Nc3c(Cl)cc(Cl)cc32)[C@H]1C(=O)O)c1cc(Cl)cc(Cl)c1 [Example 151]	+++ (NAUC “+++” refers to an observed NAUC>170% of positive control)	+++ (NAUC “+++” refers to an observed NAUC>170% of positive control)				++ (NAUC “++” refers to an observed NAUC 170-140% of positive control)
CN(C(=O)[C@H]1[C@H]2CC(F)(F)CN2[C@]2(C(=O)Nc3c2ccc(Cl)c3Cl)[C@H]1C(=O)O)c1cc(Cl)cc(Cl)c1 (racemic) [Example 100, rac-(1′R,2′S,7a′R)-6,7-dichloro-1-((3,5-dichlorophenyl)(methyl)carbamoyl)-6′,6′-difluoro-2-oxo-1′,2′,5′,6′,7′,7a′-hexahydrospiro[indoline-3,3′-pyrrolizine]-2′-carboxylic acid]			+ (NAUC “+” refers to an observed NAUC <140% of positive control)	+ (NAUC “+” refers to an observed NAUC <140% of positive control)	+ (NAUC “+” refers to an observed NAUC <140% of positive control)	
CC(C)(C)c1cccc(C2CC2NC(=O)[C@H]2[C@H]3CC(F)(F)CN3C3(C(=O)Nc4c(Cl)cc(Cl)cc43)[C@H]2C(=O)O)c1 (stereo partly shown) [Example 272]			+ (NAUC “+” refers to an observed NAUC <140% of positive control)	+ (NAUC “+” refers to an observed NAUC <140% of positive control)	++ (NAUC “++” refers to an observed NAUC 170-140% of positive control)	
CN(C(=O)[C@H]1[C@H]2CC(F)(F)CN2[C@]2(C(=O)Nc3c(Cl)cc(Cl)cc32)[C@H]1C(=O)O)c1cccc(-c2ccccc2)c1 [Example 161]	++ (NAUC “++” refers to an observed NAUC 170-140% of positive control)	+++ (NAUC “+++” refers to an observed NAUC>170% of positive control)				++ (NAUC “++” refers to an observed NAUC 170-140% of positive control)
O=C(Nc1cc(Cl)c(OC(F)F)c(Cl)c1)C1C2CC(F)(F)CN2C2(C(=O)Nc3c(Cl)cc(Cl)cc32)C1C(=O)O (stereo not shown) [Example 20]				+++ (NAUC “+++” refers to an observed NAUC>170% of positive control)	+++ (NAUC “+++” refers to an observed NAUC>170% of positive control)	
CC(C)(C)c1cccc(C(C)(C)CNC(=O)C2C3CC(F)(F)CN3C3(C(=O)Nc4c(Cl)cc(Cl)cc43)C2C(=O)O)c1 (single isomer, unassigned) [Example 288a, 1′-((2-(3-(tert-butyl)phenyl)-2-methylpropyl)carbamoyl)-5,7-dichloro-6′,6′-difluoro-2-oxo-1′,2′,5′,6′,7′,7a′-hexahydrospiro[indoline-3,3′-pyrrolizine]-2′-carboxylic acid]			+++ (NAUC “+++” refers to an observed NAUC>170% of positive control)	+++ (NAUC “+++” refers to an observed NAUC>170% of positive control)	+++ (NAUC “+++” refers to an observed NAUC>170% of positive control)	
CONC(=O)[C@H]1[C@@H](C(=O)Nc2cc(Cl)cc(Cl)c2)[C@H]2CCCN2C12C(=O)Nc1c(Cl)cc(Cl)cc12 (stereo partly drawn) [Example 233, (1′R,2′S,7a′R)-5,7-dichloro-N1′-(3,5-dichlorophenyl)-N2′-methoxy-2-oxo-1′,2′,5′,6′,7′,7a′-hexahydrospiro[indoline-3,3′-pyrrolizine]-1,2′-dicarboxamide]			++ (NAUC “++” refers to an observed NAUC 170-140% of positive control)	+++ (NAUC “+++” refers to an observed NAUC>170% of positive control)	+++ (NAUC “+++” refers to an observed NAUC>170% of positive control)	
O=C(Nc1cc(Cl)cc(Cl)c1)C1C(C(F)(F)c2ccccn2)NC2(C(=O)Nc3c(Cl)cc(Cl)cc32)C1C(=O)O (stereo not shown) [Example 72.b]					+ (NAUC “+” refers to an observed NAUC <140% of positive control)	
